Some test systems named below: LOX IMVI; SN12C; U-251; TK-10; HCT-116; PC-3; MDA-MB-435; MCF7; NCI-H460; NCI-H522; SK-MEL-2; ACHN; CAKI-1; MDA-N; HCT-15; MDA-MB-231; NCI-H226; SK-MEL-28; IGROV-1; SNB-19.
Experiment in all cases: NCI-60 cell line screen, 48 h

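1) Cells in 96-well plates. 2) Compound, 48 h, 5 concentrations. 3) Linear interpolation between surrounding doses. 4) Unreached endpoint = highest concentration. The concentration for 50% growth inhibition is given as GI50.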 The source made the active and inactive calls. Cut-off read from the data, not from the text of the source: active = GI50 up to about 1.1 µM and inactive = higher.

In the case of `COc1ccc2o/c(=N/c3ccccc3)c(C(N)=O)cc2c1`, the GI50 was > 100 µM (inactive) with LOX IMVI; > 100 µM (inactive) with SN12C; > 79.1 µM (inactive) in the experiment on U-251; > 49.2 µM (inactive) in the experiment on TK-10; > 69.8 µM (inactive) in the experiment with HCT-116; > 100 µM (inactive) in the experiment with PC-3. In addition, the GI50 in the experiment on MDA-MB-435 is 3.45 µM (inactive); in the experiment on MCF7 it was 45.9 µM (inactive); in the experiment with NCI-H460 it was > 100 µM (inactive); in the experiment with NCI-H522, > 54.8 µM (inactive); in the experiment on SK-MEL-2, > 100 µM (inactive); in the experiment with ACHN, 19 µM (inactive). Besides, the GI50 was > 71.3 µM (inactive) with CAKI-1; 6.84 µM (inactive) with MDA-N; > 100 µM with HCT-15; > 53.3 µM (inactive) in the experiment on MDA-MB-231; > 85.3 µM (inactive) with NCI-H226; > 100 µM (inactive) in the experiment with SK-MEL-28. Besides, the GI50 with IGROV-1 is > 70.6 µM (inactive).
Regarding `CCNC(=S)N/N=C/c1cc(OC)ccc1O`, the GI50 in the experiment on LOX IMVI is 99.3 µM (inactive); in the experiment with SN12C, > 100 µM (inactive); in the experiment on U-251, 61.4 µM (inactive); in the experiment with TK-10, > 100 µM (inactive); with HCT-116, 85.5 µM (inactive); with PC-3, 56.2 µM (inactive). Further, the GI50 with MDA-MB-435 was 64.6 µM (inactive); with MCF7, 5.74 µM (inactive); in the experiment on NCI-H460 it was 35.2 µM (inactive); with NCI-H522, 65.8 µM (inactive); in the experiment on SK-MEL-2 it was > 100 µM (inactive); in the experiment on ACHN it was 66.7 µM (inactive). Moreover, the GI50 in the experiment with MDA-N is > 100 µM (inactive); with HCT-15, 47.6 µM; with MDA-MB-231, > 100 µM (inactive); in the experiment with NCI-H226, > 100 µM (inactive); in the experiment with SK-MEL-28 it was > 100 µM (inactive); with SNB-19, > 100 µM (inactive). The GI50 in the experiment on IGROV-1 is 82.4 µM (inactive).
As to `CC1=NN(C(=O)CC(=O)Nc2ccccc2)C(=O)C1/N=N/c1ccc(C(=O)O)cc1` (centres undefined), the GI50 is > 100 µM (inactive) in the experiment with LOX IMVI; > 100 µM (inactive) with SN12C; 97.3 µM (inactive) with U-251; > 100 µM (inactive) with TK-10; > 100 µM (inactive) in the experiment with HCT-116; > 100 µM (inactive) in the experiment on PC-3. Also, the GI50 with MDA-MB-435, in the experiment on MCF7, in the experiment with NCI-H460, in the experiment on NCI-H522, with SK-MEL-2 and in the experiment on ACHN was > 100 µM (inactive) throughout. Also, the GI50 in the experiment on CAKI-1 was > 100 µM (inactive); in the experiment on MDA-N, > 100 µM (inactive); in the experiment on HCT-15, > 100 µM; in the experiment with MDA-MB-231, > 100 µM (inactive); in the experiment on SK-MEL-28, > 100 µM (inactive); with SNB-19, 80.5 µM (inactive). In addition, the GI50 with IGROV-1 is > 100 µM (inactive).
In the case of `N=c1oc2c(Br)cc(Br)cc2cc1C(=O)Nc1ccccn1`, the GI50 is > 100 µM (inactive) with LOX IMVI; > 100 µM (inactive) in the experiment on SN12C; 96.6 µM (inactive) in the experiment on U-251; 38.3 µM (inactive) with HCT-116; 38.5 µM (inactive) in the experiment with PC-3; 62.1 µM (inactive) with MDA-MB-435. Besides, the GI50 was 39.9 µM (inactive) in the experiment with MCF7; 71.9 µM (inactive) in the experiment with NCI-H460; 47.2 µM (inactive) in the experiment with NCI-H522; 30.1 µM (inactive) in the experiment on SK-MEL-2; 70.5 µM (inactive) in the experiment with ACHN; > 100 µM (inactive) in the experiment on CAKI-1. The GI50 is > 100 µM (inactive) in the experiment on MDA-N; 38.9 µM with HCT-15; > 100 µM (inactive) in the experiment with MDA-MB-231; 84.9 µM (inactive) with NCI-H226; > 100 µM (inactive) in the experiment on SK-MEL-28; > 100 µM (inactive) in the experiment on SNB-19. Moreover, in the experiment with IGROV-1, the GI50 is > 100 µM (inactive).
On to `COC1(CC[C@@H](C)COC2OC(CO)C(O)C(O)C2O)O[C@H]2C[C@H]3[C@@H]4CC=C5C[C@@H](OC6OC(CO)C(OC7OC(C)C(O)C(O)C7O)C(O)C6OC6OC(C)C(O)C(O)C6O)CC[C@]5(C)[C@H]4CC[C@]3(C)[C@H]2[C@@H]1C` (some centres undefined), for which the GI50 with LOX IMVI is 1.73 µM (inactive); in the experiment with SN12C, 5.85 µM (inactive); in the experiment with U-251, 1.81 µM (inactive); with TK-10, 17.2 µM (inactive); in the experiment with PC-3, 3.13 µM (inactive); in the experiment with MDA-MB-435 it was 2.02 µM (inactive). Besides, the GI50 in the experiment on MCF7 was 6.28 µM (inactive); in the experiment on NCI-H522, 2.08 µM (inactive); with SK-MEL-2, 4.39 µM (inactive); in the experiment with ACHN, 11.4 µM (inactive); in the experiment on CAKI-1, 1.53 µM (inactive); in the experiment with MDA-N, 2.61 µM (inactive). The GI50 is 1.98 µM with HCT-15; 1.6 µM (inactive) in the experiment on MDA-MB-231; 9.18 µM (inactive) in the experiment on NCI-H226; 2.97 µM (inactive) with SK-MEL-28; 3.17 µM (inactive) in the experiment on SNB-19; 4.59 µM (inactive) in the experiment on IGROV-1.

The record behind these values is ChEMBL document CHEMBL1201862, “PubChem BioAssay data set” (2004).
